Test results reported in US20160376247A1, “NOVEL TEMPERATURE-SENSITIVE FLUORESCENT COMPOUND AND APPLICATION THEREOF” (SHANGHAI INSTITUTES FOR BIOLOGICAL SCIENCES, CHINESE …, priority 2013, published 2016).

Legend:
[1] = Temperature dependence of Stokes luminescence intensity of dye in solution; assay type: physicochemical; conditions: for temperature-sensitive properties of Stokes luminescence: 10 μM dye, emission spectra at different temperatures
Experimental: (§1) Concentration of dye is 10 μM, and solvent is 150 mM KCl solution, pH 7.5; (d) Stokes emission spectra (excited at 530 nm) of 10 μM RhBME (dissolved in 150 mM KCl solution at pH 7.5) at different temperatures (from bottom to top, 45, 35, 25, 15, 5[…] respectively), and Stokes luminescence intensity is normalized against peak at 25[…].

[2] = literature [2, 3]; cited from earlier work
[3] = Temperature dependence of anti-Stokes luminescence intensity of dye in solution; assay type: physicochemical; conditions: 10 μM in 150 mM KCl pH 7.5, excited at 633 nm, 5-45 degrees
Experimental: as §1, with “anti-Stokes” for “Stokes”, “633” for “530”, “Rh101ME” for “RhBME”, “top” for “bottom”, “bottom,” for “top,”
From the spectrogram of Rh101 and derivatives thereof (FIG. 1a), it can be seen that there is no significant difference in spectroscopic characteristics between the compound of formula II (Rh101AM) or the compound of formula IV (Rh101ME) and Rh101.

[4] = literature [2, 3]; cited from earlier work; remark: listed apart in the source

| Compound | temperature-sensitive properties of Stokes luminescence [1] | Stokes luminescence intensity vs temperature [1] | also measured |
| --- | --- | --- | --- |
| CCN(CC)c1ccc2c(-c3ccccc3C(=O)OCc3ccc(C(=O)Nc4cc5cccnc5c5ncccc45)cc3)c3ccc(=[N+](CC)CC)cc-3oc2c1 [RPA, Rhodamine B-[(1,10-phenanthrolin-5-yl)aminocarbonyl]benzyl ester] | possess temperature-sensitive properties |  |  |
| N=c1ccc2c(-c3ccccc3C(=O)O)c3ccc(N)cc3oc-2c1 [Rh110] | does not possess temperature-sensitive properties |  |  |
| N#CC1=c2cc3c4c(c2Oc2c1cc1c5c2CCCN5CCC1)CCC[N+]=4CCC3 [Rh800] | does not possess temperature-sensitive properties at a wavelength of less than 700 nm |  |  |
| CCN(CC)c1ccc2c(-c3ccccc3C(=O)O)c3ccc(=[N+](CC)CC)cc-3oc2c1 [RhB, Rhodamine B] |  |  | Stokes emission intensity vs temperature [2]: decreased as the temperature increases |
| O=C(O)c1ccccc1C1=c2cc3c4c(c2Oc2c1cc1c5c2CCCN5CCC1)CCC[N+]=4CCC3 [Rh101, rhodamine 101] | does not possess temperature-sensitive properties |  | anti-Stokes luminescence intensity vs temperature [3]: increases as the temperature increases; Anti-Stokes emission intensity vs temperature [4]: enhanced as the temperature increases |
| CCN(CC)c1ccc2c(-c3ccccc3C(=O)OCOC(C)=O)c3ccc(=[N+](CC)CC)cc-3oc2c1 [RhBAM] |  | decreases as the temperature increases |  |
| CC(=O)OCOC(=O)c1ccccc1C1=c2cc3c4c(c2Oc2c1cc1c5c2CCCN5CCC1)CCC[N+]=4CCC3 [Rh101AM] |  | does not substantially change as the temperature changes |  |
| CCN(CC)c1ccc2c(-c3ccccc3C(=O)OC)c3ccc(N(CC)CC)cc3[o+]c2c1.[Cl-] [RhBME] |  | decreases as the temperature increases |  |
| tetramethylrhodamine methyl ester [TMRM] | possess temperature-sensitive properties |  |  |
| CCCCCCCCCCCCCCCCOC(=O)c1ccccc1-c1c2ccc(=[N+](CC)CC)cc-2oc2cc(N(CC)CC)ccc12 [RhB-C16] | possesses temperature-sensitive properties |  |  |
